The target of the first test is hepatitis C virus RNA dependant polymerase (NS5B) (Hepatitis C virus genotype 1b, UniProt P26663). The test can be described thus: Inhibition of NS5B RNA dependent RNA polymerase activity. As to conditions: Table 1; HCV NS5B polymerase. It is filed as biochemical. On the procedure: A suitable assay is described in the examples.
Sequence of hepatitis C virus RNA dependant polymerase (NS5B) (P26663 2420-3010): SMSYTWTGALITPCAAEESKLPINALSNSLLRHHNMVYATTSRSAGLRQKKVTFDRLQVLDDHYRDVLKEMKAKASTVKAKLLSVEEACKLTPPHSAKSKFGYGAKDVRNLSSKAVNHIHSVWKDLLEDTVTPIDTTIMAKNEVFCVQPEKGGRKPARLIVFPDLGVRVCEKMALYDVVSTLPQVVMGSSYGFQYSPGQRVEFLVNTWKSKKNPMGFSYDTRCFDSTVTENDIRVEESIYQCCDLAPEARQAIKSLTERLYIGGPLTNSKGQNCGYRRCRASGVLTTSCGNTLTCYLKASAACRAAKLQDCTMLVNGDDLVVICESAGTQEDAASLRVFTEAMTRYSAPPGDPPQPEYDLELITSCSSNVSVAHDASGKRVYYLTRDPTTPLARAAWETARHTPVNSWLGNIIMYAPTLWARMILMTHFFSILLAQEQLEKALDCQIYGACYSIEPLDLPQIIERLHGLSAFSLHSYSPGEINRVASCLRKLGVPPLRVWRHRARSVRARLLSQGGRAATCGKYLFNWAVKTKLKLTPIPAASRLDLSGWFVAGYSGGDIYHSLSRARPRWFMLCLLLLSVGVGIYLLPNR
Inhibition of NS5B RNA Dependent RNA Polymerase Activity
The compounds of the invention were tested for inhibitory activity against the hepatitis C virus RNA dependant polymerase (NS5B), according to protocol described in WO 03/010141
With `O=C(O)c1ccc2c(C3CCCCC3)c(-c3ccc(Br)cn3)n(CC(=O)N3CCC[C@H]3C(=O)O)c2c1` [Example 1137], the IC50 (commonly the concentration at which inhibition is half-maximal) was in the range of 200 to 1000 nM.

`CN(CC(=O)O)C(=O)Cn1c(-c2ccc(Br)cn2)c(C2CCCCC2)c2ccc(C(=O)O)cc21` [Example 1138]: the IC50 fell in the range of 200 to 1000 nM.

With `O=C(O)CN1CCN(C(=O)Cn2c(-c3ccc(Br)cn3)c(C3CCCCC3)c3ccc(C(=O)O)cc32)CC1` [Example 1139], the IC50 was less than 200 nM.

`O=C(Cn1c(-c2ccc(Br)cn2)c(C2CCCCC2)c2ccc(C(=O)O)cc21)N[C@@H](Cc1c[nH]c2cc(O)ccc12)C(=O)O` [Example 1140] registered a half-maximal inhibitory concentration (IC50) of 200 to 1000 nM.

As to `O=C(Cn1c(-c2ccc(Br)cn2)c(C2CCCCC2)c2ccc(C(=O)O)cc21)NNC(=O)NC[C@H]1CC[C@H](C(=O)O)CC1` [Example 1141], the IC50 is 200 to 1000 nM.

As for `CN(C)C(=O)Cn1c(-c2ccccn2)c(C2CCCCC2)c2ccc(C(=O)O)cc21` [Example 1142], the IC50 lay in the range of 200 to 1000 nM.

`CNC(=O)Cn1c(-c2ccccn2)c(C2CCCCC2)c2ccc(C(=O)O)cc21` [Example 1143] gave an IC50 of 1000 to 10000 nM.

Still in this test, the particulars now being: Table 2; HCV NS5B polymerase.
With `O=C(NS(=O)(=O)c1ccccc1)c1ccc2c(C3CCCCC3)c(-c3ccoc3)n(CC(=O)N3CCOCC3)c2c1` [Example 2001], the IC50 is less than 200 nM.

As for `CS(=O)(=O)NC(=O)c1ccc2c(C3CCCCC3)c(-c3ccoc3)n(CC(=O)N3CCOCC3)c2c1` [Example 2002], the IC50 was less than 200 nM.

For `O=C(NS(=O)(=O)Cc1ccccc1)c1ccc2c(C3CCCCC3)c(-c3ccoc3)n(CC(=O)N3CCOCC3)c2c1` [Example 2003], the IC50 is less than 200 nM.

`O=C(NS(=O)(=O)c1ccc(Cl)s1)c1ccc2c(C3CCCCC3)c(-c3ccoc3)n(CC(=O)N3CCOCC3)c2c1` [Example 2004]: the IC50 was less than 200 nM.

`O=C(NS(=O)(=O)C(F)(F)F)c1ccc2c(C3CCCCC3)c(-c3ccoc3)n(CC(=O)N3CCOCC3)c2c1` [Example 2005] had an IC50 of less than 200 nM.

The compound `COC(=O)c1ccccc1S(=O)(=O)NC(=O)c1ccc2c(C3CCCCC3)c(-c3ccoc3)n(CC(=O)N3CCOCC3)c2c1` [Example 2006] registered an IC50 of less than 200 nM.

`O=C(NS(=O)(=O)c1ccc2ccccc2c1)c1ccc2c(C3CCCCC3)c(-c3ccoc3)n(CC(=O)N3CCOCC3)c2c1` [Example 2007]: the IC50 was less than 200 nM.

Regarding `O=C(NS(=O)(=O)c1ccc(Br)cc1)c1ccc2c(C3CCCCC3)c(-c3ccoc3)n(CC(=O)N3CCOCC3)c2c1` [Example 2008], the IC50 was less than 200 nM.

For `COc1ccc(S(=O)(=O)NC(=O)c2ccc3c(C4CCCCC4)c(-c4ccoc4)n(CC(=O)N4CCOCC4)c3c2)cc1` [Example 2009], the concentration for half-maximal inhibition (IC50) was less than 200 nM.

The compound `O=C(NS(=O)(=O)c1cccc(Cl)c1)c1ccc2c(C3CCCCC3)c(-c3ccoc3)n(CC(=O)N3CCOCC3)c2c1` [Example 2010] displayed an IC50 of less than 200 nM.

With `O=C(NS(=O)(=O)c1ccccc1Br)c1ccc2c(C3CCCCC3)c(-c3ccoc3)n(CC(=O)N3CCOCC3)c2c1` [Example 2011], the concentration for half-maximal inhibition (IC50) was less than 200 nM.

Compound `O=C(NS(=O)(=O)c1ccccc1Cl)c1ccc2c(C3CCCCC3)c(-c3ccoc3)n(CC(=O)N3CCOCC3)c2c1` [Example 2012] displayed an IC50 of less than 200 nM.

In turn, `O=C(NS(=O)(=O)c1ccc(OC(F)(F)F)cc1)c1ccc2c(C3CCCCC3)c(-c3ccoc3)n(CC(=O)N3CCOCC3)c2c1` [Example 2013] registered an IC50 of less than 200 nM.

`O=C(NS(=O)(=O)c1cc(F)ccc1F)c1ccc2c(C3CCCCC3)c(-c3ccoc3)n(CC(=O)N3CCOCC3)c2c1` [Example 2014] gave an IC50 of less than 200 nM.

`O=C(NS(=O)(=O)c1ccc(F)cc1)c1ccc2c(C3CCCCC3)c(-c3ccoc3)n(CC(=O)N3CCOCC3)c2c1` [Example 2015] registered an IC50 of less than 200 nM.

`Cc1ccccc1S(=O)(=O)NC(=O)c1ccc2c(C3CCCCC3)c(-c3ccoc3)n(CC(=O)N3CCOCC3)c2c1` [Example 2016] gave an IC50 of less than 200 nM.

The compound `O=C(NS(=O)(=O)c1ccc([N+](=O)[O-])cc1)c1ccc2c(C3CCCCC3)c(-c3ccoc3)n(CC(=O)N3CCOCC3)c2c1` [Example 2018] yielded an IC50 of less than 200 nM.

As to `O=C(NS(=O)(=O)c1ccc(Cl)cc1)c1ccc2c(C3CCCCC3)c(-c3ccoc3)n(CC(=O)N3CCOCC3)c2c1` [Example 2019], the IC50 was less than 200 nM.

`Cc1c(S(=O)(=O)NC(=O)c2ccc3c(C4CCCCC4)c(-c4ccoc4)n(CC(=O)N4CCOCC4)c3c2)sc2ccc(F)cc12` [Example 2020] gave an IC50 of less than 200 nM.

`Cc1ccc(S(=O)(=O)NC(=O)c2ccc3c(C4CCCCC4)c(-c4ccoc4)n(CC(=O)N4CCOCC4)c3c2)cc1` [Example 2022] had an IC50 of less than 200 nM.

For the compound `CN(C(=O)c1ccc2c(C3CCCCC3)c(-c3ccoc3)n(CC(=O)N3CCOCC3)c2c1)S(=O)(=O)c1ccccc1` [Example 2023], the IC50 fell in the range of 1000 to 10000 nM.

Compound `O=C(NS(=O)(=O)c1cccc2cccnc12)c1ccc2c(C3CCCCC3)c(-c3ccoc3)n(CC(=O)N3CCOCC3)c2c1` [Example 2024] showed an IC50 of less than 200 nM.

On to `CC(C)(C)c1ccc(S(=O)(=O)NC(=O)c2ccc3c(C4CCCCC4)c(-c4ccoc4)n(CC(=O)N4CCOCC4)c3c2)cc1` [Example 2025], for which the IC50 is less than 200 nM.

For the compound `O=C(NS(=O)(=O)C1CC1)c1ccc2c(C3CCCCC3)c(-c3ccoc3)n(CC(=O)N3CCOCC3)c2c1` [Example 2026], the half-maximal inhibitory concentration (IC50) was less than 200 nM.

Take `O=C(NS(=O)(=O)CC(F)(F)F)c1ccc2c(C3CCCCC3)c(-c3ccoc3)n(CC(=O)N3CCOCC3)c2c1` [Example 2027]: the IC50 is less than 200 nM.

Compound `O=C(NS(=O)(=O)c1c(Cl)sc(Cl)c1Br)c1ccc2c(C3CCCCC3)c(-c3ccoc3)n(CC(=O)N3CCOCC3)c2c1` [Example 2029] had an IC50 of less than 200 nM.

In turn, `O=C(NS(=O)(=O)c1cc(Cl)sc1Cl)c1ccc2c(C3CCCCC3)c(-c3ccoc3)n(CC(=O)N3CCOCC3)c2c1` [Example 2030] registered an IC50 of less than 200 nM.

For `N#Cc1ccccc1S(=O)(=O)NC(=O)c1ccc2c(C3CCCCC3)c(-c3ccoc3)n(CC(=O)N3CCOCC3)c2c1` [Example 2032], the IC50 lay within 200 to 1000 nM.

As for `Cc1nn(C)c(Cl)c1S(=O)(=O)NC(=O)c1ccc2c(C3CCCCC3)c(-c3ccoc3)n(CC(=O)N3CCOCC3)c2c1` [Example 2033], the IC50 is less than 200 nM.

For `Cc1noc(C)c1S(=O)(=O)NC(=O)c1ccc2c(C3CCCCC3)c(-c3ccoc3)n(CC(=O)N3CCOCC3)c2c1` [Example 2034], the IC50 is less than 200 nM.

Turning to `O=C(NS(=O)(=O)c1cccc2nsnc12)c1ccc2c(C3CCCCC3)c(-c3ccoc3)n(CC(=O)N3CCOCC3)c2c1` [Example 2035], the IC50 was less than 200 nM.

The compound `O=C(NS(=O)(=O)c1c(F)cccc1F)c1ccc2c(C3CCCCC3)c(-c3ccoc3)n(CC(=O)N3CCOCC3)c2c1` [Example 2036] came in with an IC50 of less than 200 nM.

The compound `O=C(NS(=O)(=O)c1c(Cl)nc2sccn12)c1ccc2c(C3CCCCC3)c(-c3ccoc3)n(CC(=O)N3CCOCC3)c2c1` [Example 2037] registered an IC50 of less than 200 nM.

Compound `CS(=O)(=O)c1ccccc1S(=O)(=O)NC(=O)c1ccc2c(C3CCCCC3)c(-c3ccoc3)n(CC(=O)N3CCOCC3)c2c1` [Example 2038] yielded an IC50 of less than 200 nM.

Turning to `O=C(NS(=O)(=O)c1cccc2cnccc12)c1ccc2c(C3CCCCC3)c(-c3ccoc3)n(CC(=O)N3CCOCC3)c2c1` [Example 2039], the IC50 was less than 200 nM.

`COc1cc(C)ccc1S(=O)(=O)NC(=O)c1ccc2c(C3CCCCC3)c(-c3ccoc3)n(CC(=O)N3CCOCC3)c2c1` [Example 2040] displayed an IC50 of less than 200 nM.

`Cc1c(S(=O)(=O)NC(=O)c2ccc3c(C4CCCCC4)c(-c4ccoc4)n(CC(=O)N4CCOCC4)c3c2)cnn1-c1ccccc1` [Example 2042] gave an IC50 of less than 200 nM.

Consider `CC(C)c1cc(C(C)C)c(S(=O)(=O)NC(=O)c2ccc3c(C4CCCCC4)c(-c4ccoc4)n(CC(=O)N4CCOCC4)c3c2)c(C(C)C)c1` [Example 2043], for which the half-inhibitory concentration (IC50) was 200 to 1000 nM.

In the case of `Cc1cc(C)c(S(=O)(=O)NC(=O)c2ccc3c(C4CCCCC4)c(-c4ccoc4)n(CC(=O)N4CCOCC4)c3c2)c(C)c1` [Example 2044], the IC50 was less than 200 nM.

In turn, `O=C(NS(=O)(=O)C(Cl)(Cl)Cl)c1ccc2c(C3CCCCC3)c(-c3ccoc3)n(CC(=O)N3CCOCC3)c2c1` [Example 2045] gave an IC50 of less than 200 nM.

The test is the same for the next values; noted with them: Table 3; HCV NS5B polymerase.
`Nc1nc(-c2ccc(NC(=O)C3(NC(=O)c4ccc5c(C6CCCC6)c(-c6ccoc6)n(CC(=O)N6CCOCC6)c5c4)CCCNC3)cc2)cs1` (centres unmarked) [Example 3001] showed an IC50 of less than 200 nM.

`NC(=O)[C@]1(NC(=O)c2ccc3c(C4CCCCC4)c(-c4ccoc4)n(CC(=O)N4CCOCC4)c3c2)CCNC1` [Example 3004] showed an IC50 of less than 200 nM.

Compound `CC(C)(NC(=O)Cn1c(-c2ccoc2)c(C2CCCCC2)c2ccc(C(=O)NC(C)(C)C(=O)Nc3ccc(/C=C/C(=O)O)cc3)cc21)C(=O)Nc1ccc(/C=C/C(=O)O)cc1` [Example 3005] displayed an IC50 of less than 200 nM.

`CN1CCN(C(=O)Cn2c(-c3ccccn3)c(C3CCCCC3)c3ccc(C(=O)NC(C)(C)C(=O)Nc4ccc(/C=C/C(=O)O)cc4)cc32)CC1` [Example 3006] gave an IC50 of less than 200 nM.

On to `CN1CCN(C(=O)Cn2c(-c3ccccn3)c(C3CCCCC3)c3ccc(C(=O)NC4(C(=O)Nc5ccc(/C=C/C(=O)O)cc5)CCC4)cc32)CC1` [Example 3007], for which the IC50 is less than 200 nM.

The compound `O=C(O)/C=C/c1ccc(NC(=O)C2(NC(=O)c3ccc4c(C5CCCCC5)c(-c5ccccn5)n(CC(=O)N5CCCC5)c4c3)CCC2)cc1` [Example 3008] yielded an IC50 of less than 200 nM.

For `O=C(O)/C=C/c1ccc(NC(=O)C2(NC(=O)c3ccc4c(C5CCCCC5)c(-c5ccccn5)n(CC(=O)N5CCCCC5)c4c3)CCC2)cc1` [Example 3009], the IC50 is less than 200 nM.

Consider `O=C(O)/C=C/c1ccc(NC(=O)C2(NC(=O)c3ccc4c(C5CCCC5)c(-c5ccccn5)n(CC(=O)N5CCCC5)c4c3)CCC2)cc1` [Example 3010], for which the IC50 was less than 200 nM.

The compound `O=C(O)C=Cc1ccc(NC(=O)C2(NC(=O)c3ccc4c(C5CCCC5)c(-c5ccccn5)n(CC(=O)N5CCCCC5)c4c3)CCC2)cc1` [Example 3011] displayed an IC50 of less than 200 nM.

The values above are taken from patent US7888363B2, “Viral polymerase inhibitors” (Boehringer Ingelheim International GmbH, priority 2003, dated 2011).
